# Assay results taken from PubChem BioAssay (NCI).
#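 Step 1: Grow cells in 96-well plates. Step 2: Expose to compound for 48 hours at 5 concentrations. Step 3: Interpolate endpoints linearly; if unreached, use highest concentration. Abbreviation: GI50, concentration required for 50% inhibition of growth. Definition used: TGI = concentration required for complete inhibition of growth.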
# Legend:
# Assay in all cases: NCI tumour cell line growth inhibition, 48 h
# HL-60(TB) leukemia = tested on: HL-60(TB) leukemia
# UACC-62 melanoma = tested on: UACC-62 melanoma
# HCT-116 colon = tested on: HCT-116 colon
# EKVX NSCLC = tested on: EKVX NSCLC
# HOP-92 NSCLC = tested on: HOP-92 NSCLC
# MDA-MB-435 = tested on: MDA-MB-435
# IGROV1 ovarian = tested on: IGROV1 ovarian
# NCI-H23 lung = tested on: NCI-H23 lung
# TK-10 renal = tested on: TK-10 renal
# MALME-3M melanoma = tested on: MALME-3M melanoma
Compound,TGI (HL-60(TB) leukemia) [µM],TGI (UACC-62 melanoma) [µM],TGI (HCT-116 colon) [µM],TGI (EKVX NSCLC) [µM],TGI (HOP-92 NSCLC) [µM],TGI (MDA-MB-435) [µM],TGI (IGROV1 ovarian) [µM],TGI (NCI-H23 lung) [µM],TGI (TK-10 renal) [µM],TGI (MALME-3M melanoma) [µM],GI50 (HL-60(TB) leukemia) [µM],GI50 (UACC-62 melanoma) [µM],GI50 (HCT-116 colon) [µM],GI50 (EKVX NSCLC) [µM],GI50 (HOP-92 NSCLC) [µM],GI50 (MDA-MB-435) [µM],GI50 (IGROV1 ovarian) [µM],GI50 (NCI-H23 lung) [µM],GI50 (TK-10 renal) [µM],GI50 (MALME-3M melanoma) [µM]
CCCCCCCCCCN(CCCCCCCCCC)C(=O)COc1c2cc(C(C)(C)C)cc1Cc1cc(C(C)(C)C)cc(c1OCC(=O)N(CCCCCCCCCC)CCCCCCCCCC)Cc1cc(C(C)(C)C)cc(c1OCC(=O)N(CCCCCCCCCC)CCCCCCCCCC)Cc1cc(C(C)(C)C)cc(c1OCC(=O)N(CCCCCCCCCC)CCCCCCCCCC)C2,30.9,25.3,5.6,25.2,11.4,25.6,24.8,9.16,33.5,28.7,–,–,–,–,–,–,–,–,–,–
O=C1C(Cl)C(c2cccc(Cl)c2)N1c1ccc(-n2c(=S)[nH]c3ccccc3c2=O)cc1 (stereo not given),52.1,31.5,85.3,> 100,94.5,36.6,23.9,49.7,80.1,> 100,–,–,–,–,–,–,–,–,–,–
CCN(CC)CC(=O)O[C@]1(CC)C(=O)OCc2c1cc1n(c2=O)Cc2cc3ccccc3nc2-1,0.401,0.0261,0.352,> 100,2.12,0.862,1.04,0.13,24.9,2.61,–,–,–,–,–,–,–,–,–,–
O=C(Cc1ccccc1)N/N=C/c1ccccc1O,> 100,47.9,> 100,> 100,54.8,> 100,81.8,> 100,> 100,66.6,–,–,–,–,–,–,–,–,–,–
Cc1ccc2c(c1)C1(C)OC(C=CC1=O)O2 (stereo not given),0.998,3.6,0.652,7.69,1.48,0.317,8.88,2.38,5.5,1.32,–,–,–,–,–,–,–,–,–,–
CCOC(=O)C1(C(=O)OCC)C[C@H](C)[C@](C)(O)C1,> 100,> 100,> 100,> 100,> 100,> 100,> 100,> 100,> 100,> 100,–,–,–,–,–,–,–,–,–,–
N#C/C(N)=C(\C#N)N=CN,> 100,> 100,> 100,> 100,> 100,> 100,> 100,> 100,> 100,> 100,–,–,–,–,–,–,–,–,–,–
O=S1(=O)N(CCNc2nccc(-c3c(-c4cccc(O)c4)nc4sccn34)n2)CCN1Cc1ccccc1,20.1,5.29,19.4,> 50,> 50,> 50,43.6,27.7,29.2,> 50,8.4,0.136,5.56,26.8,12.9,1.23,6.65,7.19,4.07,0.108
C=C(CC[C@@H](C)[C@H]1CC[C@@]2(C)C3=C(CC[C@]12C)[C@@]1(C)CC[C@H](O)[C@@H](C)C1CC3)C(C)C (stereo not given in full),8.32,2.61,2.48,2.42,2.54,2.82,8.32,2.51,2.56,2.51,–,–,–,–,–,–,–,–,–,–
CC(=NNC(=S)Nc1ccc(C)cc1)c1cccc(C(C)=NNC(=S)Nc2ccc(C)cc2)n1,15.7,> 100,45.3,> 100,> 100,> 100,75.4,> 100,> 100,46.9,–,–,–,–,–,–,–,–,–,–
O=C(O)Cc1cc(O)c(CC(=O)O)cc1O,> 100,> 100,> 100,> 100,> 100,> 100,> 100,> 100,> 100,> 100,–,–,–,–,–,–,–,–,–,–
O=c1[nH]nc(Cc2ccccc2)[nH]1,> 100,> 100,> 100,> 100,> 100,> 100,> 100,> 100,> 100,> 100,–,–,–,–,–,–,–,–,–,–
Cc1cccc2c(N)c3cccc(C(=O)NCC[N+](C)(C)Cc4c([N+](=O)[O-])ncn4C)c3nc12,> 44.4,> 100,> 90.2,> 100,> 100,> 100,> 100,> 70.2,> 100,> 100,–,–,–,–,–,–,–,–,–,–
CC(C)(C)c1ccc(-c2nc3ccc(Cl)cc3c(=O)o2)cc1,42.4,56.5,40.5,70,46.8,56.5,87.2,35,> 100,50.9,–,–,–,–,–,–,–,–,–,–
COc1cc(/C=C2\N=C(c3ccccc3)N(c3nc4c(OC)ccc(OC)c4s3)C2=O)ccc1O,> 100,> 100,> 100,> 100,> 100,50.7,> 100,> 100,> 100,> 100,–,–,–,–,–,–,–,–,–,–
C=C1CC[C@H](O)C(C)(C)[C@@H]1CC/C(C)=C/CC/C=C(\C)CC/C=C(\C)CCC=C(C)C,69,> 100,> 100,> 100,> 100,> 100,> 100,> 100,> 100,> 100,–,–,–,–,–,–,–,–,–,–
NCCCCC(N)C(=O)NCCNc1ccc(NCCNC(=O)C(N)CCCCN)c2c1C(=O)c1ccccc1C2=O (stereo not given),> 100,> 100,> 100,> 100,> 100,> 100,> 100,> 100,> 100,> 100,–,–,–,–,–,–,–,–,–,–
CC(C)=CC(=O)C[C@H]1C(=O)O[C@@H]2C[C@H]3C(C)=CC(=O)[C@@H](O)[C@]3(C)[C@H]3[C@@]4(O)OC[C@]32[C@@H]1[C@@H](C)[C@H]4O,> 100,0.443,0.114,4.25,0.328,0.305,0.941,0.042,0.512,0.0619,–,–,–,–,–,–,–,–,–,–

Compound,TGI (HL-60(TB) leukemia) [µM],TGI (UACC-62 melanoma) [µM],TGI (HCT-116 colon) [µM],TGI (EKVX NSCLC) [µM],TGI (HOP-92 NSCLC) [µM],TGI (MDA-MB-435) [µM],TGI (IGROV1 ovarian) [µM],TGI (NCI-H23 lung) [µM],TGI (TK-10 renal) [µM],TGI (MALME-3M melanoma) [µM],GI50 (HL-60(TB) leukemia) [µM],GI50 (UACC-62 melanoma) [µM],GI50 (HCT-116 colon) [µM],GI50 (EKVX NSCLC) [µM],GI50 (HOP-92 NSCLC) [µM],GI50 (MDA-MB-435) [µM],GI50 (IGROV1 ovarian) [µM],GI50 (NCI-H23 lung) [µM],GI50 (TK-10 renal) [µM],GI50 (MALME-3M melanoma) [µM]
O=C1O/C(=C(/Cl)c2cccc3ccccc23)c2ccccc21,> 100,> 100,> 100,> 100,> 100,> 100,> 100,> 100,> 100,> 100,–,–,–,–,–,–,–,–,–,–
Cc1ccccc1N=Nc1ccc(N/N=C2/CCCNC2=O)c(C)c1,> 100,> 100,> 100,> 100,> 100,> 100,> 100,> 100,> 100,> 100,–,–,–,–,–,–,–,–,–,–
C/C=C(/C)C(=O)O[C@H]1C[C@@H]2[C@@H](O)c3occ(C)c3C[C@]2(C)[C@@H](C)C1,28.9,27.2,28.5,30.5,31.4,33,30.8,33.1,33.8,29.2,–,–,–,–,–,–,–,–,–,–
COc1ccc(CCN2CCN(CCc3ccc(OC)cc3)CC2)cc1,> 100,> 100,> 100,> 100,> 100,> 100,> 100,> 100,> 100,> 100,–,–,–,–,–,–,–,–,–,–
COc1ccc(C2=Nn3c(nnc(Cc4ccc(Cl)cc4)c3=O)SC2)cc1,> 100,> 100,> 100,> 100,> 100,33.4,> 100,> 100,> 100,> 100,–,–,–,–,–,–,–,–,–,–
COc1ccccc1N1CCN(CCCN2/C(=C(\O)c3ccccc3)C(=O)c3c(C)cc(C)nc3S2(=O)=O)CC1,> 100,> 100,> 100,> 100,98,> 100,> 100,> 100,> 100,> 100,–,–,–,–,–,–,–,–,–,–
NC(CCC(=O)O)C(=O)N1CCN(c2nc(N3CCCC3)c3nc(Cl)c(NCc4ccccc4)nc3n2)CC1 (stereo not given),24.4,24.7,28.4,27.7,32.2,26.2,40,32.3,31,33.6,–,–,–,–,–,–,–,–,–,–
CC(C)(C)C1=CC(=C(c2ccc(-c3c4nc(c(-c5ccc(C(=C6C=C(C(C)(C)C)C(=O)C(C(C)(C)C)=C6)c6cc(C(C)(C)C)c(O)c(C(C)(C)C)c6)cc5)c5ccc([nH]5)c(-c5ccc(C(=C6C=C(C(C)(C)C)C(=O)C(C(C)(C)C)=C6)c6cc(C(C)(C)C)c(O)c(C(C)(C)C)c6)cc5)c5nc(c(-c6ccc(C(=C7C=C(C(C)(C)C)C(=O)C(C(C)(C)C)=C7)c7cc(C(C)(C)C)c(O)c(C(C)(C)C)c7)cc6)c6ccc3[nH]6)C=C5)C=C4)cc2)c2cc(C(C)(C)C)c(O)c(C(C)(C)C)c2)C=C(C(C)(C)C)C1=O,> 100,> 100,> 100,> 100,> 100,> 100,> 100,> 100,> 100,> 100,–,–,–,–,–,–,–,–,–,–
COC(=O)CCc1cc(O)c2c(c1)C(C(=O)OC)C(c1ccc(O)c(O)c1)O2 (stereo not given),> 21.8,> 100,> 100,> 100,> 100,4.67,> 92.5,> 100,> 100,> 100,–,–,–,–,–,–,–,–,–,–
Cc1ccc(/C=C2\CCC/C(=C\c3ccc(O)c(CN4CCCCC4)c3)C2=O)cc1,> 100,9.92,7.65,27.8,25.2,25.5,26.5,18.3,37.9,43.7,–,–,–,–,–,–,–,–,–,–
NC(N)=N/N=C/c1c(-c2cccc([N+](=O)[O-])c2)nc2n1CCS2,45.6,39,> 100,54.5,39.7,55.3,30.9,58.9,47.4,38.1,–,–,–,–,–,–,–,–,–,–
CCn1c2ccccc2n2c(=O)c3c(c(C#N)c12)CCCC3,> 100,> 100,> 100,> 100,> 100,> 100,> 100,> 100,> 100,> 100,–,–,–,–,–,–,–,–,–,–
Cc1ccc(C)c(COCCOCn2ccc(N)nc2=O)c1,> 100,> 100,> 100,> 100,> 100,> 100,> 100,> 100,> 100,> 100,–,–,–,–,–,–,–,–,–,–
COC(=O)C1C(=O)C=CN([C@H](C)c2ccccc2)[C@@H]1Cc1ccc(OC)c(OCc2ccccc2)c1I (stereo not given in full),79,25.7,24.3,> 100,17.4,47.8,29.5,40.3,60.4,39.6,–,–,–,–,–,–,–,–,–,–
O=C1CCCC2(c3ccccc3)Nc3ccccc3N12 (stereo not given),> 100,> 100,> 100,> 100,> 100,> 100,> 100,> 100,> 100,> 100,–,–,–,–,–,–,–,–,–,–
CC(C)Oc1ccc2c(c1)OCC1Cc3ccccc3OC21 (stereo not given),> 100,> 100,> 100,> 100,> 100,> 100,> 100,> 100,> 100,> 100,–,–,–,–,–,–,–,–,–,–
NC(=S)Nc1ccc(S(=O)(=O)Nc2ccc(S(N)(=O)=O)cc2)cc1,> 100,> 100,> 100,> 100,> 100,> 100,> 100,> 100,> 100,> 100,–,–,–,–,–,–,–,–,–,–
COC(=O)C(NC(=O)c1ccccc1)c1ccco1 (stereo not given),> 100,> 100,> 100,> 100,> 100,> 100,> 100,> 100,> 100,> 100,–,–,–,–,–,–,–,–,–,–
